Reference: article PMC4666646, “The Structure of the RNA-Dependent RNA Polymerase of a Permutotetravirus Suggests a Link between Primer-Dependent and Primer-Independent Polymerases” (PLoS Pathogens, 2015)

Assays:
TaVpol (TaV RdRP domain) [1] = target: T1, TaVpol (TaV RdRP domain) (Thosea asigna virus, UniProt Q6A562); conditions: MnCl2, ssRNA template 5'-[…]; active site of molecule B, base stacked on Y611 and F613 of loop λ6
TaVpol (TaV RdRP domain) [2] = target: T1, TaVpol (TaV RdRP domain); assay: X-ray crystal structure, […] Å; format: binding; set-up: RdRP domain, first 674 residues of replicase ORF1 (1257 residues), 75 kDa fragment released by proteolysis in Hi5 insect cells; N-terminal 6xHis tag and TEV site, tag cut for biochemical assays; dimer; conditions: MgCl2; triphosphate in rNTP tunnel (nucleoside disordered); second site in thumb subdomain (M556, T560, D563, E601)
TaVpol (TaV RdRP domain) [3] = target: T1, TaVpol (TaV RdRP domain); assay: X-ray crystal structure, […] Å; format: binding; set-up: RdRP domain, first 674 residues of replicase ORF1 (1257 residues), 75 kDa fragment released by proteolysis in Hi5 insect cells; N-terminal 6xHis tag and TEV site, tag cut for biochemical assays; dimer; conditions: MgCl2; triphosphate in rNTP tunnel (nucleoside disordered); second site in thumb subdomain (M556, T560, D563, E601); remark: listed apart in the source
[4] = target: TaVpol (RdRP domain of Thosea asigna virus ORF1, first 674 residues) (Thosea asigna virus); assay: SEC; analytic chromatography on a calibrated Superdex 200 5/150 column of purified proteins; for TaVpol also the final purification step on Superdex 200 HR 10/300 (50 mM MES pH 6.0, 500 mM NaCl, 10% glycerol, 5 mM DTT)
[5] = target: T2, TaVpol (RdRP-containing N-terminal fragment of ORF1) (Thosea asigna virus, UniProt Q6A562 1-674); assay: X-ray crystallography; ATP, CTP, 5 mM MnCl2; 3.5 A; RNA density weak, only phosphate peaks in template channel, RNA not built; Complex formation: 1 mg/ml TaVpol, 1:1.5 protein:RNA, 50 mM MES pH 6.0, 200 mM NaCl, 10% glycerol, 5 mM DTT, 30 C 30 min; crystals at 20 C in 12% PEG 8K, 750 mM Li2SO4; conditions: protein: recombinant; tags: N-terminal 6xHis with TEV site (tag not removed for RNA complexes as far as stated); chain copies: 2; single strand
[6] = target: T2, TaVpol (RdRP-containing N-terminal …); assay: X-ray crystallography; Complex formation: 1 mg/ml TaVpol, 1:1.5 protein:RNA, 50 mM MES pH 6.0, 200 mM NaCl, 10% glycerol, 5 mM DTT, 30 C 30 min; crystals at 20 C in 12% PEG 8K, 750 mM Li2SO4; conditions: protein: recombinant; tags: N-terminal 6xHis with TEV site (tag not removed for RNA complexes as far as stated); chain copies: 2; single strand

`Nc1ncnc2c1ncn2[C@@H]1O[C@H](COP(=O)(O)OP(=O)(O)OP(=O)(O)O)[C@@H](O)[C@H]1O` [ATP] was tested, and the “X-ray crystal structure, 3.5 Å” value (TaVpol (TaV RdRP domain) [1]) was “This density, was interpreted as the presence of a bound ATP molecule”.

For `Nc1ccn([C@@H]2O[C@H](COP(=O)(O)OP(=O)(O)OP(=O)(O)O)[C@@H](O)[C@H]2O)c(=O)n1` [CTP], the “X-ray crystal structure, 2.25 Å” value (TaVpol (TaV RdRP domain) [2]) was “TaVpol-GTP and TaVpol-CTP co-crystals were also obtained in presence of MgCl2”.

In the case of `Nc1nc2c(ncn2[C@@H]2O[C@H](COP(=O)(O)OP(=O)(O)OP(=O)(O)O)[C@@H](O)[C@H]2O)c(=O)[nH]1` [GTP], the “X-ray crystal structure, 2.3 Å” value (TaVpol (TaV RdRP domain) [3]) is reported as “TaVpol-GTP and TaVpol-CTP co-crystals were also obtained in presence of MgCl2”.

Work on “TaVpol (RdRP domain of Thosea asigna virus ORF1, first 674 residues) (domain or fragment)” yielded a stoichiometry N [4] of 2.

CCCAUUCGACUCCUG (ssRNA) [15-nt ssRNA template]: binds [5].

GUAUACUACACCCAUUCGACUCCUG (ssRNA) [25-nt ssRNA template]: binds [6].
